Read-outs that look alike come from different tables or passages of the source.
Key:
[1] = system: de novo GMP synthesis (IMPDH); experiment: Machine learning prediction of de novo GMP synthesis ratio in MMF treated vs control GBM PDXs infused with U13C glucose; assay type: in vivo; conditions: MMF treated GBM PDX mice vs control PDXs, from measured enrichment patterns
From the text: To generate data used for flux modeling, patient-derived xenografts (PDXs) from human glioblastomas are implanted into the brains of immunodeficient mice. PDXs are transduced with luciferase and EGFP prior for imaging and physical separation from brain tissue, respectively. Once brain tumors are established, mice are cannulated for infusions, treatments, and blood sampling. One catheter is surgically placed into the jugular vein of anesthetized recipient mice, and a second line is placed into the carotid artery. In experiments in which mice are to receive oral administration of MMF or vehicle, a third catheter is directed to the stomach. […] Brain tumors are separated from healthy brain tissue by fluorescence-guided microdissection. […] Small molecules from solid tissues and plasma are extracted and samples are analyzed by liquid chromatography-mass spectrometry (LC-MS) to identify the metabolites and their labeling patterns (FIG. 1A).
To train machine learning models that can predict the ratio of de novo synthesis of GMP to the overall GMP synthesis, simulated MIDs were used as input features. […] A machine learning model with a good evaluation score on a test dataset should be also evaluated on some experimental value for further validation. […] By measuring the MIDs in these two groups, the de novo GMP ratio can be calculated using the INST-MFA method and compared to machine learning results. […]

[2] = system: inosine monophosphate dehydrogenase (IMPDH); conditions: mice models, combined with radiation; cited from earlier work
[3] = human, in vivo
Method: Eight patients with suspected GBM were recruited to the IRB-approved clinical study, which was performed perioperatively with standard-of-care craniotomies. Near the start of each procedure (approximately 2-4 hours prior to tissue resection), patients received a bolus intravenous dose of [U^13C]-glucose (8 g) followed by a continuous intravenous infusion of [U^13C]-glucose at a rate of 4 g/h. Arterial blood was collected into EDTA-coated vials every 30-60 min for plasma preparation and analysis until solid tissues of interest were harvested from each patient. […]
(§1) Flash-frozen tissue samples were homogenized in cold (−80° C.) 80% methanol. […] Isotope labeling was determined using an Agilent system consisting of an Infinity Lab II UPLC coupled with a 6545 QTOF mass spectrometer (Agilent Technologies, Santa Clara, CA), and data were analyzed with values corrected for natural isotope abundance using MassHunter Profinder 10.0. […] To determine relative metabolite abundances in tissues and plasma from control or Ser/Gly (−) diet fed mice, samples were prepared as described above and then analyzed with an Agilent 1290 Infinity II LC-6470 Triple Quadrupole tandem mass spectrometer system (Agilent Technologies, Santa Clara, CA). For compound optimization, calibration, and data acquisition, Agilent MassHunter Quantitative Analysis Software version B.08.02 was used.

[4] = set-up: species or system mice; conditions: mouse, in vivo
From the text: At approximately 1-2 weeks before expected death related to brain tumors (˜3 weeks post-implant), intracranial GBM-bearing mice underwent dual catheterizations, with one catheter surgically placed into the jugular vein (for [U^13C]-glucose administration) and a second catheter placed into the carotid artery (for plasma collection during infusion). Mice were then allowed to recover from surgery for 4-5 days. In studies assessing the influence of RT on metabolism, cannulated mice were anesthetized by 2% isoflurane inhalation and then treated with cranially directed RT at a dose of 8 Gy or sham RT with a lead shield keeping the cranium […]. […]
as §1, with “For compound optimization, calibration, and data acquisition, Agilent MassHunter Quantitative Analysis Software version B.08.02 was used.” left out

| Compound | de novo GMP synthesis ratio (de novo to overall GMP synthesis) predicted by machine learning model [1] | radiation outcomes [2] | time to arterial steady state of labeled glucose [3] | time to arterial steady state of labeled glucose [4] [min] |
| --- | --- | --- | --- | --- |
| COc1c(C)c2c(c(O)c1C/C=C(\C)CCC(=O)OCCN1CCOCC1)C(=O)OC2 [MMF, mycophenolate mofetil] | lower de novo GMP synthesis ratio | improves radiation outcomes | – | – |
| [U^13C]-glucose | – | – | approximately 30 minutes | ≤ 30 |

From patent publication US20260063623A1, “METHODS OF ASSESSING METABOLIC FLUX” (The Regents of the University of Michigan, priority 2022, published 2026)
